Laboratory results taken from ChEMBL document CHEMBL3507680, “University of Dundee, Gates Library screen for HepG2 cell viability”.

Test: Human HepG2 cell viability assay in 384 well format
Format: toxicity, cell-based
Parameters: dose 125 nL, time 70.5 hour; cytotoxicity at 70.5 h: concentration not given beside the values
Details: HepG2 cells, read-out: Inhibition

Structure (SMILES) | cytotoxicity at 70.5 h [%]
CC(C)(C)C(=O)N1C[C@H](c2ccsc2)[C@H]2CN(C3CCCC3)CC[C@H]21 | -4.45
CCc1nc2n(n1)CC(NCc1cc3ccccc3o1)CC2 (stereo unspecified) | -8.62
Cc1nc2ccnn2c(C)c1CCC(=O)N1CCSCC1 | -6.09
Cc1csc([C@@H]2C[C@H]3CN(c4ncc(F)cn4)C[C@H]3O2)n1 | -2.24
COCCNC(=O)Cn1cc(NC(=O)c2cccc(Cl)c2Cl)cn1 | -1.6
COc1ccc(CNC[C@H]2COCc3nc4cc(F)ccc4n32)cn1 | -18.3
COc1ccc(NC(=O)c2cnc(N(C)C3CCCCC3)nc2N)cc1 | 2.82
Cc1occc1C(=O)NCc1ccc(N2CCCC(C(N)=O)C2)cc1 (stereo unspecified) | -6.48
Cc1nc(CN2CC(CCCc3ccccn3)(C(=O)N(C)C)C2)co1 | -1.84
CC(=O)Nc1cccc(Cn2nc(C)nc2C)c1 | -6.2
CC1COCCN1Cc1nc(C(C)(C)C)no1 (stereo unspecified) | -6.43
CC(O)c1cn(Cc2ccc(F)cc2)nn1 (stereo unspecified) | -4.74
O=C(c1cc(C2CC2)nc2onc(-c3ccccc3)c12)N1CC(O)C1 | 16.9
CN1CCN(S(C)(=O)=O)Cc2cccnc21 | -2.81
CCN1CCCc2cc(CN3CCc4c(nc(C)[nH]c4=O)C3)ccc21 | -3.71
CCCc1ccc(C(C)Nc2ncnc3c2CCNC3)cc1 (stereo unspecified) | -2.09
CCCC(=O)N1CCN(CCN(C)C)c2nc(C)ccc2C1 | -2.97
C[C@@H]1CN(C(=O)Cc2ccsc2)C[C@]12CCN(CCN(C)C)C2=O | -10.3
COc1ccc(C)cc1S(=O)(=O)NCC(c1cccn1C)N(C)C (stereo unspecified) | -3.74

Structure (SMILES) | cytotoxicity at 70.5 h [%]
COC(=O)C1CCN(C(=O)c2ccc(NS(C)(=O)=O)c(C)c2)CC1 | -9.09
O=C(NS(=O)(=O)c1ccccc1)c1ccccc1F | -4.29
CC(=O)N1CCCC1c1cc(N2CCN(C3CCCC3)CC2)cc(C)n1 (stereo unspecified) | -7.01
Cc1nc(-c2ccccc2)sc1CSCCS(C)(=O)=O | 1.82
Cc1cc(C(=O)N2C[C@@H]3CN(S(C)(=O)=O)CCO[C@@H]3C2)c(C)o1 | 19.5
CCn1ncc2c1NC(=O)CC2c1cnc(NCc2ccccc2)nc1 (stereo unspecified) | 14.7
Cc1noc([C@H]2COC[C@H]3CN(C(=O)Cc4ccccc4F)C[C@H]32)n1 | -17
CCN1C(=O)CCCC12CCCN(C(=O)c1ccoc1C)C2 (stereo unspecified) | -10.9
COCCN1C(=O)CO[C@H]2CN(Cc3ccccc3OC)C[C@H]21 | -13.3
Cc1cc(=O)c(C(=O)N2CCC(C(O)Cc3ccccc3)CC2)c(C)[nH]1 (stereo unspecified) | -14.4
Cc1csc(N2CCCN(C(=O)CCN3CCCC3=O)CC2)n1 | -8.02
CN(C)C(=O)c1c[nH]nc1C1CCN(S(=O)(=O)c2ccc(Cl)cc2)CC1 | 17.9
Cn1cc(NS(=O)(=O)c2ccc(F)c(F)c2)ccc1=O | -7.99
C[C@@H]1CN(C2CCN(Cc3nn(C)c4cccc(Cl)c34)CC2)C[C@H](C)O1 | 25.7
Cc1ccc2[nH]c(C(=O)N3CCC4(CC3)C(=O)NCCN4C)nc2c1 | -6.83
CN(Cc1nnc(C2CC2)n1C)S(=O)(=O)Cc1ccccc1F | -20.7
CC(C)N(C)C(=O)C1=NOC2(CCN(C(=O)c3ccccn3)C2)C1 (stereo unspecified) | -9.35
CN(Cc1ccco1)c1ccc(-c2nccn2C)nn1 | 9.03
Cc1cc(C)n(CC2CN(c3cnc4ccccc4n3)CCO2)n1 (stereo unspecified) | -8.47

Structure (SMILES) | cytotoxicity at 70.5 h [%]
Cn1ccnc1CN(CCO)C(=O)c1nc2ccccc2s1 | 2.62
Cc1nc(C)n(CC2CCCN2CCC(=O)N2CCCCC2)n1 (stereo unspecified) | -5.35
O=C1NCCN(Cc2cccnc2)C1CC(=O)N1CCc2n[nH]cc2C1 (stereo unspecified) | -0.172
CSc1ccsc1C(=O)NC(Cc1ccccc1)C(N)=O (stereo unspecified) | -1.87
Nc1cc2c(nn1)CCN(C(=O)CCc1ccc3c(c1)OCO3)C2 | -6.15
CCc1ccc(O)c(C(=O)N2CCCN(CC(=O)N(CC)CC)CC2)c1 | -0.346
CCOCC1CN(S(=O)(=O)N(C)C)Cc2cnn(C)c21 (stereo unspecified) | -6.39
Nc1cc(-c2ccc(C(=O)O)cc2O)c2cc[nH]c2n1 | 4.2
CSCCCN(CCN1CCOCC1)Cc1ccco1 | -9.79
O=C(Nc1ccc(F)cc1)C1CCN(Cc2noc(C3CC3)n2)CC1 | -7.96
CS(=O)(=O)N1CCCCCC1C1CCN(Cc2nc(C3CC3)no2)CC1 (stereo unspecified) | 5.88
CC(C)c1cccc(-n2cc(O)c(C(=O)NCCCn3cccn3)n2)c1 | -5.65
COc1ccc(OC)c(C(=O)N2CCC(Nc3cccnc3)CC2)c1 | -0.864
Cc1ccc2nc(C3CCCN3Cc3cccc(CCN)c3)[nH]c2c1 (stereo unspecified) | -4.63
CN1CCN(c2cc(CNC(=O)c3cccnc3O)ccn2)CC1 | -1.85
Cn1cc(CN2CCO[C@H]3CN(Cc4ccsc4)C[C@H]32)cn1 | -14
O=C(C1CCOCC1)N1C[C@@H]2OCCN(CCN3CCCC3)[C@@H]2C1 | -3.55
CN(c1ccc(C(=O)NCCN2CCOCC2)c(Cl)c1)S(C)(=O)=O | -1.41
